# Source: ChEMBL document CHEMBL3632499, “Synthesis and Antiproliferative Activity Evaluation of the Disulfide-Containing Cyclic Peptide Thiochondrilline C and Derivatives” (J Nat Prod, 2015)
# Positions of bridges follow the written chain, without caps; N, C: chain ends. Non-standard residues stand in square brackets, D forms with d. Residues, ends and D or L forms follow the SMILES beside them. Chains are numbered I, II in the order given. *: point of attachment. Quinaldoyl(3-OH) = O=C(c1nc2ccccc2cc1O)*; NMeC = CN[C@@H](CS)C(=O)O
# System: A549
# Experiment: Cytotoxicity against human A549 cells
# Type: functional, cell-based
row,Compound,EC50 [µM]
1,COC(=O)[C@H](CSC)N(C)C(=O)[C@@H]1CSSC[C@@H](NC(=O)c2nc3ccccc3cc2O)C(=O)NCC(=O)N1C ({Quinaldoyl(3-OH)}-[dC]G[NMeC][NMeC](Me)-OMe; disulfide 1-3),2.9
2,"CSC[C@H]1C(=O)SC[C@@H](NC(=O)c2nc3ccccc3cc2O)C(=O)NCC(=O)N(C)[C@H]2CSSC[C@@H](C(=O)N1C)N(C)C(=O)CNC(=O)[C@H](NC(=O)c1nc3ccccc3cc1O)CSC(=O)[C@H](CSC)N(C)C2=O [THIOCORALINE A] (I: {Quinaldoyl(3-OH)}-[dC]G[NMeC][NMeC](Me) / II: {Quinaldoyl(3-OH)}-[dC]G[NMeC][NMeC](Me); thioester I:1-II:C, I:C-II:1; disulfide I:3-II:3)",0.01
